Square brackets hold non-standard residues; d marks the D form. Peptide text beside a SMILES is read from it. Nle = CCCC[C@H](N)C(=O)O
System: rat pituitary cells in tissue culture
Experiment: Bioassay of hGRF analogs: GH release from cultured pituitary cells
Format: cell-based
Conditions: for Dose Needed to Release 2.01 μg/ml of GH (ED50 value for hGRF) / Maximum GH Released / Relative Maximum Activity (% of hGRF): from curves generated by ALLFIT; for GH release at dosages comparable to native hGRF: referring to Table 1; for Potency: (ED50 of hGRF)/(Dose required to give same response as ED50 of hGRF): relative to hGRF(1-44)-NH2 = 100
From the text: The assay for biological activity, which is based on the ability to stimulate release of growth hormone in rat pituitary cells in tissue culture, has been described in detail (Culler, M. D.; Kenjo, T.: Obara, N.; Arimuar, A., Stimulation of cAMP. Accumulation by Human Pancreatic GH-Releasing Factor-(1-44). Am. J. Physiol. 1984, 247 (Endocrinol.Metab.10), E609-E615.
ALLFIT, the 4-parameter logistic curve fitting program available from the Biomedical Computer Technology Information Center, Vanderbilt Medical Center, Nashville TN, was used to determine ED50 and maximal stimulated values from the data. In several instances, the amount of GH released reached a maximum value and decreased with further increasing doses of the hGRF analogs. To simplify the data analysis, these values were not used in the calculations. The calculated maximal responses, the doses of the analog required to release the amount of GH released at the ED50 of the standard (hGRF) and the potencies of the analogs relative to hGRF, are given in Table 2. Generally all novel analogs were fully active and were able to stimulate the release of growth hormone with maximal values of GH release being within 80% of the value for natural hGRF.

| Structure (SMILES) | GH Released (mean ± (S.E.)) (Dose 1 × 10^-6 M) | GH Released (mean ± (S.E.)) (Dose 1 × 10^-7 M) | GH Released (mean ± (S.E.)) (Dose 1 × 10^-8 M) | GH Released (mean ± (S.E.)) (Dose 1 × 10^-9 M) | GH Released (mean ± (S.E.)) (Dose 1 × 10^-10 M) | GH Released (mean ± (S.E.)) (Dose 1 × 10^-11 M) | Dose Needed to Release 2.01 μg/ml of GH (ED50 value for hGRF) | Maximum GH Released | Relative Maximum Activity (% of hGRF) | GH release at dosages comparable to native hGRF | Potency: (ED50 of hGRF)/(Dose required to give same response as ED50 of hGRF) |
| --- | --- | --- | --- | --- | --- | --- | --- | --- | --- | --- | --- |
| CCCC[C@H](NC(=O)[C@@H](NC(=O)[C@H](CC(N)=O)NC(=O)[C@H](CCC(N)=O)NC(=O)[C@H](CC(C)C)NC(=O)[C@H](CC(C)C)NC(=O)[C@H](CCCCN)NC(=O)[C@H](CCCNC(=N)N)NC(=O)[C@H](C)NC(=O)[C@H](CO)NC(=O)[C@H](CC(C)C)NC(=O)[C@H](CCC(N)=O)NC(=O)CNC(=O)[C@H](CC(C)C)NC(=O)[C@@H](NC(=O)[C@H](CCCCN)NC(=O)[C@H](CCCNC(=N)N)NC(=O)[C@H](Cc1ccc(O)cc1)NC(=O)[C@H](CO)NC(=O)[C@H](CC(=O)O)NC(=O)[C@@H](NC(=O)[C@H](Cc1ccccc1)NC(=O)[C@@H](NC(=O)[C@H](C)NC(=O)[C@H](CC(=O)O)NC(=O)[C@H](C)NC(=O)[C@@H](N)Cc1ccc(O)cc1)[C@@H](C)CC)[C@@H](C)O)C(C)C)[C@@H](C)CC)C(=O)N[C@@H](CO)C(=O)N[C@@H](CCCNC(=N)N)C(=O)N[C@@H](CCC(N)=O)C(=O)N[C@@H](CCC(N)=O)C(N)=O [[Asp^8,Asn^25,Nle^27], [Asp^8,Asn^25,Nle^27]-hGRF(1-31)--NH2] (H-YADAIFTDSYRKVLGQLSARKLLQNI[Nle]SRQQ-NH2) | 2.86 (0.07) μg/mL | 2.93 (0.17) μg/mL | 2.86 (0.08) μg/mL | 2.59 (0.17) μg/mL | 0.96 (0.07) μg/mL | 0.74 (0.09) μg/mL | 0.42 nM | 2.89 µg/mL | 87% | induced GH release in dosages comparable to those for native hGRF | 76% |
| CCCC[C@H](NC(=O)[C@@H](NC(=O)[C@H](CC(=O)O)NC(=O)[C@H](CCC(N)=O)NC(=O)[C@H](CC(C)C)NC(=O)[C@H](CC(C)C)NC(=O)[C@H](CCCCN)NC(=O)[C@H](CCCNC(=N)N)NC(=O)[C@H](C)NC(=O)[C@H](CO)NC(=O)[C@H](CC(C)C)NC(=O)[C@H](CCC(N)=O)NC(=O)CNC(=O)[C@H](CC(C)C)NC(=O)[C@@H](NC(=O)[C@H](CCCCN)NC(=O)[C@H](CCCNC(=N)N)NC(=O)[C@H](Cc1ccc(O)cc1)NC(=O)[C@H](CO)NC(=O)[C@H](CC(=O)O)NC(=O)[C@@H](NC(=O)[C@H](Cc1ccccc1)NC(=O)[C@@H](NC(=O)[C@H](C)NC(=O)[C@H](CC(=O)O)NC(=O)[C@H](C)NC(=O)[C@@H](N)Cc1ccc(O)cc1)[C@@H](C)CC)[C@@H](C)O)C(C)C)[C@@H](C)CC)C(=O)N[C@@H](CO)C(=O)N[C@@H](CCCNC(=N)N)C(=O)N[C@@H](CCC(N)=O)C(=O)N[C@@H](CCC(N)=O)C(N)=O [[Asp^8,Nle^27], [Asp^8,Nle^27]-hGRF(1-31)---NH2] (H-YADAIFTDSYRKVLGQLSARKLLQDI[Nle]SRQQ-NH2) | 3.17 (0.24) μg/mL | 3.52 (0.22) μg/mL | 3.59 (0.17) μg/mL | 2.69 (0.12) μg/mL | 1.18 (0.10) μg/mL | 0.61 (0.03) μg/mL | 0.39 nM | 3.60 µg/mL | 109% | induced GH release in dosages comparable to those for native hGRF | 82% |

Source: patent US4801456A, “Growth hormone-releasing factor analogs” (International Minerals & Chemical Corp., priority 1987, dated 1989)
